These are literature values, as cited in US20260275282A1, “CELLS BEING HIGHLY ENRICHED IN SASP FACTORS, AND COMPOSITION COMPRISING SAID CELLS” (EVOMEDIS GMBH, priority 2022, published 2026).

Peptide text beside a SMILES is read from it.

One series concerns protein secretion (SASP factor secretion). The settings on record: 1 mM extracellular Ca2 - calcium dependent.
As for `CCCC[C@@H](C=O)NC(=O)[C@H](CC(C)C)NC(=O)OCc1ccccc1` [Calpeptin], the Concentration is 80 μM (1 mM.

Staying with this series, now noted: + 2-5 nM Vinblastine; actin depolymerizer with microtubule targeting-agent.
Methyl-β-cyclodextrin: the “Concentration in combination with Vinblastine” value was 1 mM + 2-5 nM.

The same series, now with this note: concentration range that results in significant reduction, preferably inhibition, of SASP factor secretion.
As to `O=CC[C@@H](O)[C@H](O)[C@H](O)CO` [2-Deoxyglucose], the Concentration is 50000 µM.
For the compound `Cn1cnc(N)c2ncnc1-2` [3-Methyladenine], the Concentration is 5000 µM.
`COc1ccc(CCN2CCC(Nc3nc4ccccc4n3Cc3ccc(F)cc3)CC2)cc1` [Astemizole]: the Concentration is 20 to 40 µM.
`CSCC[C@@H](C=O)NC(=O)[C@H](CC(C)C)NC(=O)[C@H](CC(C)C)NC(C)=O` [Calpain inhibitor II, N-acetyl-leucyl-leucyl-methioninal] (Ac-Leu-Leu-Met-aldehyde): the Concentration is 10 µM.
Regarding `COc1cc2c(c(OC)c1OC)-c1ccc(OC)c(=O)cc1[C@@H](NC(C)=O)CC2` [Colchicine], the Concentration was 2 to 5 µM.
For `CC(NCCC(c1ccccc1)c1ccccc1)c1ccccc1` (centres unmarked) [Fendiline], the Concentration is 1 to 100 µM.
Take `CNCCC(Oc1ccc(C(F)(F)F)cc1)c1ccccc1` (centres unmarked) [Fluoxetine]: the Concentration is 30 to 100 µM.
For `CN(C)CCCN1c2ccccc2CCc2ccccc21` [Imipramine], the Concentration was 1 µM.
Turning to `CC(Oc1ccc(O)cc1)(P(=O)(O)O)P(=O)(O)O` [L-690,330], the Concentration was 100 µM.
Consider `CC(=O)N[C@@H](CC(C)C)C(=O)N[C@@H](CC(C)C)C(=O)N[C@H](C=O)CCCNC(=N)N` [Leupeptin], for which the Concentration is 0.08 to 0.096 µM.
For `NC(=O)N1CCC(CC(=O)N2CCC([C@H]3c4ncc(Br)cc4CCc4cc(Cl)cc(Br)c43)CC2)CC1` [Lonafarnib], the Concentration is 5 µM.
Consider `CCCC[C@@H](C)/C=C(C)/C=C(\C)C(=O)NC1=C[C@@](O)(/C=C/C=C/C=C/C(=O)NC2=C(O)CCC2=O)[C@@H]2O[C@@H]2C1=O` [Manumycin A], for which the Concentration is 1 µM.
For `CN(C)C(=N)N=C(N)N` [Metformin], the Concentration was 5 µM.
With `CC[C@@]1([C@@H]2O[C@@H]([C@H]3O[C@@](O)(CO)[C@H](C)C[C@@H]3C)C[C@@H]2C)CC[C@H]([C@]2(C)CC[C@]3(C[C@H](O)[C@@H](C)[C@@H]([C@@H](C)[C@@H](OC)[C@H](C)C(=O)O)O3)O2)O1` [Monensin], the Concentration is 10 µM.
In the case of `CCCCc1ccc2[nH]c(NC(=O)OC)nc2c1` [Parbendazole], the Concentration is 10 µM.
Consider `Fc1ccc([C@@H]2CCNC[C@H]2COc2ccc3c(c2)OCO3)cc1` [Paroxetine], for which the Concentration is 10 to 20 µM.
In the case of `C1CCC(C(CC2CCCCN2)C2CCCCC2)CC1` (centres unmarked) [Perhexiline], the Concentration was 10 µM.
On to `Oc1ccc(C=Cc2cc(O)cc(O)c2)cc1` [Resveratrol], for which the Concentration is 12.5 to 50 µM.
For `CN[C@H]1CC[C@@H](c2ccc(Cl)c(Cl)c2)c2ccccc21` [Sertraline], the Concentration is 10 µM.
For `CNC(=O)c1cc(Oc2ccc(NC(=O)Nc3ccc(Cl)c(C(F)(F)F)c3)cc2)ccn1` [Sorafenib], the Concentration is 5 to 10 µM.
On to `O=C(CCCN1CCC2(CC1)C(=O)NCN2c1ccccc1)c1ccc(F)cc1` [Spiperone], for which the Concentration was 10 to 20 µM.
On to `C[C@@H]1CN2CCC[C@H]3CCCCCC[C@H]4CCN5CCC[C@@](O)(CCCCCC[C@@H]1O[C@H]32)[C@H]5O4` [Xestospongin B], for which the Concentration is 0.08 to 10 µM.
`C[C@@H](N)[C@H]1CC[C@H](C(=O)Nc2ccncc2)CC1` [Y27632]: the Concentration was 5 µM.
For the compound Cyclclosporine A, the Concentration was 10 to 40 µM.

For another series, the system named is microtubules assembly. The note with it: half of the maximal concentration necessary to inhibit the microtubules assembly.
Consider `C/C1=C/C[C@@H](/C(C)=C/c2csc(C)n2)OC(=O)C[C@H](O)C(C)(C)C(=O)[C@H](C)[C@@H](O)[C@@H](C)CCC1` [Desoxyepothilone B], for which the IC50 is 13 nM.
Regarding `COC(=O)Nc1nc2ccc(C(=O)c3cccs3)cc2[nH]1` [Nocodazole], the IC50 was 0.8 nM.
With `CC(=O)O[C@H]1C(=O)[C@@]2(C)[C@H]([C@H](OC(=O)c3ccccc3)[C@]3(O)C[C@H](OC(=O)[C@H](O)[C@@H](NC(=O)c4ccccc4)c4ccccc4)C(C)=C1C3(C)C)[C@]1(OC(C)=O)CO[C@@H]1C[C@@H]2O` [Paclitaxel (Taxol), Paclitaxel], the IC50 was 8 nM.
With `CC[C@]1(O)C[C@@H]2CN(CCc3c([nH]c4ccccc34)[C@@](C(=O)OC)(c3cc4c(cc3OC)N(C)[C@H]3[C@@](O)(C(=O)OC)[C@H](OC(C)=O)[C@]5(CC)C=CCN6CC[C@]43[C@@H]65)C2)C1` [Vinblastine], the IC50 was 0.8 nM.
As to `CC[C@]1(O)C[C@H]2CN(CCc3c([nH]c4ccccc34)[C@@](C(=O)OC)(c3cc4c(cc3OC)N(C=O)[C@H]3[C@@](O)(C(=O)OC)[C@H](OC(C)=O)[C@]5(CC)C=CCN6CC[C@]43[C@@H]65)C2)C1` [Vincristine], the IC50 was 0.8 nM.
With `CC[C@]1(O)C[C@@H]2CN(CCc3c([nH]c4ccccc34)[C@@](C(=O)OC)(c3cc4c(cc3OC)N(C)[C@H]3[C@@](O)(C(N)=O)[C@H](O)[C@]5(CC)C=CCN6CC[C@]43[C@@H]65)C2)C1` [Vindesine], the IC50 is 0.8 nM.
As for `CC[C@]12C=CCN3CC[C@@]4(c5cc([C@@]6(C(=O)OC)C[C@@H]7C[C@@H](C(C)(F)F)CN(Cc8c6[nH]c6ccccc86)C7)c(OC)cc5N(C)[C@H]4[C@@](O)(C(=O)OC)[C@@H]1OC(C)=O)[C@@H]32` [Vinflunine], the IC50 is 0.8 nM.
On to `CCC1=C[C@@H]2CN(C1)Cc1c([nH]c3ccccc13)[C@@](C(=O)OC)(c1cc3c(cc1OC)N(C)[C@H]1[C@@](O)(C(=O)OC)[C@H](OC(C)=O)[C@]4(CC)C=CCN5CC[C@]31[C@@H]54)C2` [Vinorelbine], for which the IC50 was 0.8 nM.

The next series has as its system kinesin. The settings on record: Kinesin inhibitors: Group V; read-out: Concentration (IC50).
For the compound `Cc1ccc(C(=O)N(CCCN)[C@@H](c2nc3cc(Cl)ccc3c(=O)n2Cc2ccccc2)C(C)C)cc1` [Ispinesib (SB715992), Ispinesib], the IC50 is 10000 to 30000 nM.

The test system of the next series is PI3K-mTOR. The settings on record: Dual inhibitor of PI3K-mTOR; read-out: Concentration (IC50).
Consider `Oc1cccc(-c2nc(N3CCOCC3)c3oc4ncccc4c3n2)c1` [PI-103], for which the IC50 is 8 to 150 nM.

The next series has as its system proteasome. The settings on record: Inhibitor of proteasome; read-out: Concentration (IC50).
As for `CC(C)C[C@H](NC(=O)[C@H](Cc1ccccc1)NC(=O)c1cnccn1)B(O)O` [Bortezomib], the IC50 is […].

The next series deals with autophagy. The note with it: BH3 domain mimetics; read-out: Concentration (IC50).
Consider `CN(C)CC[C@H](CSc1ccccc1)Nc1ccc(S(=O)(=O)NC(=O)c2ccc(N3CCN(Cc4ccccc4-c4ccc(Cl)cc4)CC3)cc2)cc1[N+](=O)[O-]` [ABT-737], for which the IC50 is 5000 to 10000 nM.
